From patent US20210100737A1, “TRANSDERMAL DELIVERY OF DRONABINOL” (Starton Therapeutics, Inc., priority 2019, published 2021)

What was measured:
[1] = Delivery of THC through human cadaver skin (U.S. Pat. No. 8,449,908); assay type: in vitro ADME; details: calculated from the cumulative amount in 96 hrs
Protocol: U.S. Pat. No. 8,449,908 provides delivery of the cumulative amount of 10000 ng THC in 96 hrs through the human cadaver skin. This amount represents the flux of 60 ng/cm^2/hr. The patch area can be calculated using following equation: […]
In order to deliver a therapeutic dosage of 5 mg/day of delta-9-THC, a transdermal formulation would need to cover at least […] surface area of the patient's skin. This is an impractical patch size for any transdermal drug delivery system (TDDS).

[2] = in 96 hrs through human cadaver skin; U.S. Pat. No. 8,449,908; cited from earlier work
[3] = cited from earlier work
[4] = dosage of 7 mg/m^2; cited from earlier work

CCCCCc1cc(O)c2c(c1)OC(C)(C)[C@@H]1CCC(C)=C[C@@H]21 (relative stereo) [dronabinol, (6aR-trans)-6a,7,8,10a-tetrahydro-6,6,9-trimethyl-3-pentyl-6H-dibenzo[b,d]pyran-1-ol]
flux [1]: 60 ng/cm^2/hr | cumulative amount of THC delivered [2]: 10000 ng | share of the administered dose that reaches systemic circulation ([3]; after oral administration, first pass hepatic metabolism): 10%-20% | Alpha half-life ([3]; in vivo): about 4 hours | adverse effects [4]: not induced
